In ChEMBL document CHEMBL1201862, “PubChem BioAssay data set” (2004):
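96-well plates; 48 h exposure; 5 concentrations. Endpoints by linear interpolation between flanking doses. Not reached: highest tested concentration assigned. GI50: concentration for 50% inhibition of growth.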 Calls of active or inactive are those of the source. No stated cut-off is given here; in the data, active = GI50 up to about 1.1 µM and inactive = higher. Residues, ends and D or L forms follow the SMILES beside them. *: point of attachment. Cbz = O=C(OCc1ccccc1)*; Boc = CC(C)(C)OC(=O)*; OSu = O=C1CCC(=O)N1O*; Bn = c1ccc(C*)cc1

Tests used:
Assay in all cases: inhibition of tumour cell growth, NCI panel, 48 h
HCT-15 = test system: HCT-15
ACHN = test system: ACHN
K562 = test system: K562
SK-MEL-2 = test system: SK-MEL-2
HOP-92 = test system: HOP-92
MCF7 = test system: MCF7
OVCAR-3 = test system: OVCAR-3
PC-3 = test system: PC-3
NCI-H226 = test system: NCI-H226
NCI-H522 = test system: NCI-H522
HCC 2998 = test system: HCC 2998
SK-OV-3 = test system: SK-OV-3
OVCAR-4 = test system: OVCAR-4
SF-539 = test system: SF-539
NCI-H460 = test system: NCI-H460
CAKI-1 = test system: CAKI-1
DU-145 = test system: DU-145
EKVX = test system: EKVX
Hs-578T = test system: Hs-578T
A498 = test system: A498

Row | SMILES | GI50 (HCT-15) [µM] | GI50 (ACHN) | GI50 (K562) | GI50 (SK-MEL-2) | GI50 (HOP-92) | GI50 (MCF7) | GI50 (OVCAR-3) | GI50 (PC-3) | GI50 (NCI-H226) | GI50 (NCI-H522) | GI50 (HCC 2998) | GI50 (SK-OV-3) | GI50 (OVCAR-4) | GI50 (SF-539) | GI50 (NCI-H460) | GI50 (CAKI-1) | GI50 (DU-145) | GI50 (EKVX) | GI50 (Hs-578T) | GI50 (A498)
1 | Clc1ncc(C(Cl)(Cl)Cl)nc1-c1ccccc1 | 1.21 | 1.68 µM (inactive) | 2.46 µM (inactive) | 2.27 µM (inactive) | 1.99 µM (inactive) | 1.68 µM (inactive) | 1.72 µM (inactive) | 1.78 µM (inactive) | 18.4 µM (inactive) | 2.52 µM (inactive) | 1.52 µM (inactive) | 11.9 µM (inactive) | 4.04 µM (inactive) | 2.63 µM (inactive) | 3.01 µM (inactive) | 2.2 µM (inactive) | 1.61 µM (inactive) | 2.29 µM (inactive) | 2.82 µM (inactive) | –
2 | N#Cc1c(N2CCOCC2)ncn(-c2ccccc2)c1=O | > 100 | > 100 µM (inactive) | > 100 µM (inactive) | > 100 µM (inactive) | > 100 µM (inactive) | > 100 µM (inactive) | > 100 µM (inactive) | > 100 µM (inactive) | > 100 µM (inactive) | – | > 100 µM (inactive) | > 100 µM (inactive) | – | > 100 µM (inactive) | > 100 µM (inactive) | > 100 µM (inactive) | > 100 µM (inactive) | > 100 µM (inactive) | – | > 100 µM (inactive)
3 | CC1=CC(=O)/C(=C/NC(=S)Nc2ccc(S(N)(=O)=O)cc2)C(=O)O1 | > 100 | > 100 µM (inactive) | – | > 100 µM (inactive) | > 100 µM (inactive) | > 100 µM (inactive) | > 100 µM (inactive) | – | > 100 µM (inactive) | – | > 100 µM (inactive) | > 100 µM (inactive) | > 100 µM (inactive) | > 100 µM (inactive) | > 100 µM (inactive) | > 100 µM (inactive) | > 100 µM (inactive) | > 100 µM (inactive) | – | > 100 µM (inactive)
4 | CC(C)(C)OC(=O)NC(Cc1ccc(OCc2ccccc2)cc1)C(=O)NC(CCCCNC(=O)OCc1ccccc1)C(=O)NC(CCCCNC(=O)OCc1ccccc1)C(=O)ON1C(=O)CCC1=O (configuration not stated) (Boc-Tyr(Bn)-Lys(Cbz)-Lys(Cbz)-OSu; configuration not given here) | > 100 | 38.5 µM (inactive) | – | 38.4 µM (inactive) | 51.2 µM (inactive) | 18.9 µM (inactive) | – | – | – | 16.4 µM (inactive) | – | > 100 µM (inactive) | 60.7 µM (inactive) | – | 71.1 µM (inactive) | 64.4 µM (inactive) | 88.5 µM (inactive) | > 100 µM (inactive) | 16.4 µM (inactive) | –
5 | N#Cc1nc(CCc2nc(C#N)c(N)o2)oc1N | > 10 | > 10 µM (inactive) | > 10 µM (inactive) | – | > 10 µM (inactive) | > 10 µM (inactive) | – | > 10 µM (inactive) | > 10 µM (inactive) | > 10 µM (inactive) | > 10 µM (inactive) | > 10 µM (inactive) | > 10 µM (inactive) | > 10 µM (inactive) | > 10 µM (inactive) | > 10 µM (inactive) | > 10 µM (inactive) | > 10 µM (inactive) | > 10 µM (inactive) | –
6 | N#CC1C(=O)Nc2sc(C(=O)c3ccc(Br)cc3)c(N)c2C12CCCCC2 (configuration not stated) | 16 | 35.6 µM (inactive) | 23.2 µM (inactive) | 14.2 µM (inactive) | – | 16.5 µM (inactive) | 9.66 µM (inactive) | 10.4 µM (inactive) | 7.8 µM (inactive) | 18.3 µM (inactive) | 22.5 µM (inactive) | 46.3 µM (inactive) | 18 µM (inactive) | 17.2 µM (inactive) | 28.2 µM (inactive) | 27.9 µM (inactive) | 23.8 µM (inactive) | 17.7 µM (inactive) | – | 20.1 µM (inactive)
7 | CC1(C)CC(=O)c2c(nc3ccc4ccccc4c3c2-c2ccc(NC(=O)CCC(=O)Nc3ccc(-c4c5c(nc6ccc7ccccc7c46)CC(C)(C)CC5=O)cc3)cc2)C1 | – | > 100 µM (inactive) | > 100 µM (inactive) | > 100 µM (inactive) | – | > 100 µM (inactive) | > 100 µM (inactive) | > 100 µM (inactive) | > 100 µM (inactive) | > 100 µM (inactive) | – | > 100 µM (inactive) | – | > 100 µM (inactive) | > 100 µM (inactive) | > 100 µM (inactive) | > 100 µM (inactive) | > 100 µM (inactive) | > 100 µM (inactive) | –
8 | C[C@]12CC[C@H](O)CC1=CC[C@@H]1[C@@H]2CC[C@]2(C)/C(=N/OCCN3CCCC3)CC[C@@H]12 | 12.1 | 25.5 µM (inactive) | 4.36 µM (inactive) | 21 µM (inactive) | – | 19.1 µM (inactive) | 16.5 µM (inactive) | 17.8 µM (inactive) | 14.5 µM (inactive) | 13 µM (inactive) | 22.3 µM (inactive) | – | 16.4 µM (inactive) | 14.6 µM (inactive) | 12 µM (inactive) | 20.9 µM (inactive) | – | 10.8 µM (inactive) | 22.9 µM (inactive) | 16 µM (inactive)
